# According to patent publication US10918768B2, “Human skin equivalents expressing exogenous polypeptides” (Stratatech Corporation, priority 2003, dated 2021):
# Test system: Staphylococcus carnosus
# Assay: antimicrobial activity assay (viable bacteria, CFU/ml)
# Assay type: cell-based
# Conditions: synthetic peptide standard curve; 37° C. for 1.5 hr
# Protocol: The antimicrobial activity assay employed Escherichia coli and Staphylococcus carnosus and is a modification of the protocol described by Porter and coworkers (Porter, E. M., et al., Infect Immun, 1997. 65(6): p. 2396-401). Briefly, gram-positive or gram-negative bacteria are grown overnight. The following day the test organisms are subcultured for 2.5 hr and working dilutions of 10^4 bacteria/ml for Escherichia coli or 10^5 bacteria/ml of Staphylococcus carnosus in 10 mM sodium phosphate (pH 7.4)-1% TSB are created. All the reactions mix 50 μl of experimental reagent (lysis, supernatants or purified protein) with 50 μl of bacterial suspension. These reactions are then incubated at 37° C. for 1.5 hr. The reactions are diluted 100-fold in 10 mM sodium phosphate (pH 7.4)-1% TSB and plated on TSB plates using a spiral plater (Spiral Biotech, Norwood, Mass.). The plates are then incubated for 12 to 16 hr at 37° C. Colonies on these plates are counted and the number of viable bacteria is determined and expressed as colony forming units per milliliter (CFU/ml).
# This example describes the development of an assay to detect LL-37 antimicrobial activity. […] A standard curve for the antimicrobial activity of LL-37 was determined for gram-positive bacteria, S. carnosus using this synthetic peptide.
smiles,measurement,value
CC[C@H](C)[C@H](NC(=O)[C@H](CCCCN)NC(=O)[C@H](CCC(=O)O)NC(=O)[C@H](CCCCN)NC(=O)[C@H](CO)NC(=O)[C@H](CCCCN)NC(=O)[C@H](CCCNC(=N)N)NC(=O)[C@H](Cc1ccccc1)NC(=O)[C@H](Cc1ccccc1)NC(=O)[C@H](CC(=O)O)NC(=O)CNC(=O)[C@H](CC(C)C)NC(=O)[C@@H](N)CC(C)C)C(=O)NCC(=O)N[C@@H](CCCCN)C(=O)N[C@@H](CCC(=O)O)C(=O)N[C@@H](Cc1ccccc1)C(=O)N[C@@H](CCCCN)C(=O)N[C@@H](CCCNC(=N)N)C(=O)N[C@H](C(=O)N[C@H](C(=O)N[C@@H](CCC(N)=O)C(=O)N[C@@H](CCCNC(=N)N)C(=O)N[C@H](C(=O)N[C@@H](CCCCN)C(=O)N[C@@H](CC(=O)O)C(=O)N[C@@H](Cc1ccccc1)C(=O)N[C@@H](CC(C)C)C(=O)N[C@@H](CCCNC(=N)N)C(=O)N[C@@H](CC(N)=O)C(=O)N[C@@H](CC(C)C)C(=O)N[C@H](C(=O)N1CCC[C@H]1C(=O)N[C@@H](CCCNC(=N)N)C(=O)N[C@H](C(=O)N[C@@H](CCC(=O)O)C(=O)N[C@@H](CO)C(=O)O)[C@@H](C)O)C(C)C)[C@@H](C)CC)C(C)C)[C@@H](C)CC [LL-37],concentration necessary to kill 50% (LC50) of S. carnosus,0.9 µg/mL
